Tests used:
Assay in all cases: Time-kill assay (CIP and/or EPI)
Format in all cases: cell-based
E. aerogenes ATCC 13048 = settings: Enterobacter aerogenes; 25 μM EPI + CIP 0.5 or 1×MIC
Method: (§1) Panel (C): Bactericidal activity of CIP alone, 25 μM MBX2319 alone, or 25 μM MBX2319 combined with a bacteriostatic concentration of CIP against E. coli AB1157 and isogenic efflux defective mutants after 2 hours exposure. […] Panel (D): Bactericidal activity of CIP alone, 25 μM MBX2319 alone, 25 μM PAβN alone, and a bacteriostatic concentration of CIP combined with 25 μM MBX2319 or combined with 25 μM PAβN against the following organisms: a) E. coli AB1157, b) E. coli ATCC 25922, c) K. pneumoniae ATCC 700603, d) S. flexneri ATCC 12022, e) S. enterica ATCC 14028, f) E. aerogenes ATCC 13048.
(§2) • Strains and Reagents. The following strains were obtained from the Keio collection (Baba, et al.: Construction of Escherichia coli K-12 in-frame, single-gene knockout mutants: the Keio collection. In Mol Syst Biol, vol. 2, pp. 2006 0008, (2006)): JW0451 (ΔacrB::kan), JW5503 (ΔtolC::kan), JW3234 (ΔacrF::kan), JW2661 (ΔemrB::kan), JW0863 (ΔmacB::kan). The deletion mutations in each of these strains were transferred to AB1157 using P1 phage transduction (see Table 1). […] The minimal inhibitory concentration (MIC) of antibacterial agents and biocides were determined using the microbroth dilution method essentially as described in the CLSI protocol M7-A7 (CLSI: Method for dilution antimicrobial susceptibility testing for bacteria that grow aerobically; Approved standard-document M7-A7. In Clinical and Laboratory Standards Institute document M7-A7, Clinical and Laboratory Standards Institute, Wayne, Pa., (2006)), with the following exceptions. […] MIC assays were performed in triplicate and the geometric mean was calculated. […] Viability was monitored over 2-4 hours by making serial dilutions in saline and spotting 5 μl of each dilution onto the surface of an LB agar plate in triplicate. Colonies were counted after the plates were incubated at 37° C. for 16-18 hr, colony forming units (CFU) per ml were calculated, and the average and standard deviation for the three replicates was determined. […]

[1] = system: K. pneumoniae ATCC 700603; settings: Klebsiella pneumoniae; 25 μM EPI + CIP 0.5 or 1×MIC
Method: as §1, §2

S. enterica ATCC 14028 = settings: Salmonella enterica; 25 μM EPI + CIP 0.5 or 1×MIC
Method: as §1, §2

Measured: decreased viability as compared to CIP alone

CC1(C)Cc2c(C#N)c(SCCc3ccccc3)nc(N3CCOCC3)c2CO1 [MBX2319]
100-1000 fold: all assays above

Source: US9540389B2, “Antimicrobial potentiators” (priority 2013, dated 2017)
